Assay results taken from patent US20200345725A1, “Methods and Compositions for Treating Cancer” (Omeros Corporation, priority 2019, published 2020).
Where “and” joins values, the source holds several entries; their conditions need not be identical. Equal entries are not always repeated.

What was measured:
Assay type in all cases: cell-based
mouse splenocytes = assay: IL-2 levels in supernatants of cultured mouse splenocytes (WT or GPR174-KO) stimulated with anti-CD3 and anti-CD28, MSD platform; conditions: 2 days
Method: To make single cell suspensions from mouse splenocytes, spleens were cut into 1-2 mm^3 pieces with a razor blade and incubated at 37° C. with 10 μg/mL DNase and 1 mg/mL Collagenase D with agitation for 90 min. Spleen fragments and cells were then pressed through a nylon screen, and the resulting cell suspension was washed. In 96-well flat-bottom plates, splenocytes were cultured in quadruplicate with the following conditions for 2 days, after which supernatants were tested for cytokine levels with the MSD platform.
Anti-CD3 (clone 2C11; 0.1 μg/mL)
GPR174 inhibitor (compound 10, 1 μM or 0.3 μM, or DMSO vehicle control)
GPR174 inhibitor (compound 6, 0.3 μM, or DMSO vehicle control)
Adenosine receptor agonist (NECA, 0.1 μM)

human PBMC = assay: IL-2 in supernatants of human PBMC stimulated with anti-CD3 and anti-CD28, ELISA; conditions: human PBMC donor 8, 24 hours post-stimulation; compound 10 1 μM, ZM-241385 0.1 μM, APCP 10 μM; FIG. 71
Method: Human PBMCs, obtained from a human volunteer donor (donor 8), were dispensed in X-vivo15 media (Lonza) supplemented with Glutamax, penicillin and streptomycin, at density of 1×10^6 cells/well in a 96-well flat-bottom plate and were cultured in quadruplicate for 3 hours in the presence of:
GPR174 inhibitory compound 10 (1 μM);
CD73 inhibitory compound, adenosine 5′-(a,p-methylene)diphosphate sodium salt (APCP, Tocris, 10 μM);
Combinations of the above agents;
After which 1 μg/mL anti-CD3 antibody (UCHT1) and 0.1 μg/mL anti-CD28 antibody (CD28.2) were added to activate T cells. Supernatants from these cells were collected at 24 hours post-stimulation and the levels of IL-2 were determined by ELISA.

GPR174 [1] = target: T1, GPR174 (Homo sapiens, UniProt Q9BXC1); assay: Cellular redistribution assay (CRA) for GPR174
Excerpt: One method for identifying compounds capable of modulating a receptor is using a cellular redistribution assay (“CRA”). Exemplary CRA methods are found in U.S. Pat. No. 7,309,576 issued to O'Dowd et al. and in O'Dowd et al., J. Biomol. Screen. 12:175-85,2007. […] Incorporation of the NLS alters the cellular localization of the GPCR, such that the majority of the NLS-modified receptor is present in the cell interior. An NLS-modified GPCR, when interacting with a functionally active compound, is mostly localized on the cell surface. Thus, it becomes possible to identify receptor modulators without knowledge of the endogenous ligand or a surrogate ligand.
The inventors have identified a number of compounds that inhibit GPR174 using a CRA assay similar to that described in U.S. Pat. No. 7,309,576 and in O'Dowd et al., J. Biomol. Screen. 12:175-85, 2007. These compounds are described in detail below.
(§1) The inventors used a CRA similar to that described in U.S. Pat. No. 7,309,576 and O'Dowd et al., J. Biomol. Screen. 12:175-85, 2007 to identify compounds that are capable of interacting with GPR174 using a library of approximately 370,000 chemical entities. Briefly described, the CRA assay described in U.S. Pat. No. 7,309,576 involves artificially inserting a NLS into the dopamine D1 receptor (DRD1), which allows the receptor to traffic from the cell membrane to the cell interior, and that the binding of antagonists to the receptor retained the receptor at the cell surface, while removal of the ligand allowed the receptor to continue to internalize from the cell surface. Both antagonists and agonists that selectively bound the receptor retained the receptor on the plasma membrane. GPR174 constructs were generated for use in a CRA-based compound screening assay. From this screen, the inventors initially identified compounds of formula I-VI, as described herein and included in Table 1.
Target sequence in this assay (Q9BXC1 1-292 limits assumed): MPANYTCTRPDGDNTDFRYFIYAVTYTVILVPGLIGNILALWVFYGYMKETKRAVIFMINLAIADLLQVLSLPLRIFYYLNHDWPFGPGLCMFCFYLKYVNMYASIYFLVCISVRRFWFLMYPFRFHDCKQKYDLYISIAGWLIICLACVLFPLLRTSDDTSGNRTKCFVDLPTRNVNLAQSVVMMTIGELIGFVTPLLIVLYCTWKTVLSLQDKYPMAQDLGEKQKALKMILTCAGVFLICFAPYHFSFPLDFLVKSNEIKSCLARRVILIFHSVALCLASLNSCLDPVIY

GPR174 [2] = target: T1, GPR174; assay: CRE-Luc reporter Gs signaling assay with GPR174; parameters: host or cells: HEK293 or CHO cell lines (ATCC); conditions: for Gs pathway in the presence of GPR174 (CRE-Luc reporter): increasing concentrations of compound; for Fold decrease in Gs signaling activity / EC50: pCRE-Luc reporter; for EC50: multiple values = separate experiments
Target sequence in this assay (Q9BXC1 whole entry): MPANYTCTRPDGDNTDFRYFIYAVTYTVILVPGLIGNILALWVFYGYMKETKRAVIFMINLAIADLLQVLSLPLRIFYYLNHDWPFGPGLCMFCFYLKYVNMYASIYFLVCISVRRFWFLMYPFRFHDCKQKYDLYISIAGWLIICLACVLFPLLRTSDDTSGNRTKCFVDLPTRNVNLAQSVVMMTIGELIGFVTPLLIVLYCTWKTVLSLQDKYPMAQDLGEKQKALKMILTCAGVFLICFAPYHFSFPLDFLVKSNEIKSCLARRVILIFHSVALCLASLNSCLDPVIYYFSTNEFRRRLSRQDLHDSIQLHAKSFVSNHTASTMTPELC

CHRM1 = assay: CRA against CHRM1
Excerpt: as §1
The inventors also sought to validate that the compounds identified using the CRA are modulatory compounds. To this end, the above-described CRA was used to screen a library for compounds that interact with three control non-orphan receptors, and the results of this screen were compared to the results of screening the same library for compound that were identified using a Fluorometric Imaging Plate Reader (FLIPR) assay, a conventional technique commonly used to identify compounds interacting with non-orphan GPCRs signaling through Ca^++. Three non-orphan GPCRs—Muscarinic acetylcholine receptor M1 (CHRM1), Adrenergic receptor alpha 1a (ADRA1a), and Neuropeptide S receptor (NPSR)—were screened against a 10,000-compound GPCR-focused library. Thirty interacting compound “hits” were identified using the CRA, and eighty-one hits were identified using the FLIPR for the CHRM1 receptor; 9 CRA hits and 29 FLIPR hits for the NPS receptor were identified; and 110 CRA hits and 110 FLIPR hits for ADRA1a.
In addition, the CRA can also provide the relative potencies of compounds against the target receptor.

ADBR2 = target: T2, ADBR2 (Homo sapiens, UniProt P07550); assay: CRE-Luc reporter assay with control receptor ADBR2
T2 construct: host or cells: HEK293 or CHO cell lines (ATCC)
Method: The DNA/lipofectamine 2000 mix (3000 μL) was incubated at room temperature for 30 minutes and then added into a 10 cm culture dish (Corning, NY) containing 70-90% confluent cultured cells, (HEK293 or CHO cell lines (ATCC, VA)), in 15 mL of media. […] The cells were further incubated at 37° C. for various times. The media were removed and the cells lysed.
Compounds were tested in the reporter system with increasing concentrations of GPR174-interacting compounds.
The DNA/lipofectamine 2000 mix (3000 μL) was incubated at room temperature for 30 minutes and then added into a 10 cm culture dish (Corning, NY) containing 70-90% confluent cultured cells, typically HEK293 or CHO cell lines (ATCC, VA), in 15 mL of media. […] Media (26 mL) were added to the detached cells and 120 μL of transfected cells were transferred to each well on a 96-well plate. Increasing concentration of each compound in DMSO (1.2 μl) was added to the cells after plating into the 96-well plate. The cells were further incubated at 37° C. for various times. The media were removed, and the cells lysed.
ADBR2 is a GPCR, like GPR174, that activates the Gs signaling pathway.

T2 sequence (P07550 whole entry): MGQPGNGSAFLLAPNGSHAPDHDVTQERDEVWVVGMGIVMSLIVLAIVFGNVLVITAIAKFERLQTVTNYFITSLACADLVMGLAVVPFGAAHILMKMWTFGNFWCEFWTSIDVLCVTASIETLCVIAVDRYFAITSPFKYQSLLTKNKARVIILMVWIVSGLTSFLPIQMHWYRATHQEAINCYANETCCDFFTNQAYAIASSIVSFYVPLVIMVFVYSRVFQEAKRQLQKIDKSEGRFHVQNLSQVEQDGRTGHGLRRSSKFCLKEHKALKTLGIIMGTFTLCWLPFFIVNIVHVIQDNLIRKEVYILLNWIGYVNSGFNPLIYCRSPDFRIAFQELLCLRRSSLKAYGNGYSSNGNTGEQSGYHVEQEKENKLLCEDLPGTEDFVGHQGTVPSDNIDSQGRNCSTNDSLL

Row | EC50 (GPR174 [1]; multiple values = separate experiments) [nM] | SMILES | increase of IL-2 levels (mouse splenocytes; GPR174-KO splenocytes, no NECA, ZM-241385 0.1 μM, FIG. 68B) [fold] | increase of IL-2 levels (mouse splenocytes; WT splenocytes, NECA 0.1 μM, compounds 10, 6 0.3 μM, ZM-241385 0.2 μM, FIG. 69) [fold] | increase of IL-2 levels (mouse splenocytes; WT splenocytes, no NECA, compound 10 1 μM, ZM-241385 0.1 μM, FIG. 68A) [fold] | increase of IL-2 levels (human PBMC) [fold] | dose-response curve against GPR174 in the CRA (FIG. 5A) (GPR174 [1]) | Gs pathway in the presence of GPR174 (CRE-Luc reporter) (GPR174 [2]) | Fold decrease in Gs signaling activity (GPR174 [2]) [fold] | EC50 (GPR174 [2]) | activity against CHRM1 in the CRA (FIG. 5B) (CHRM1) | Gs pathway in the presence of ADBR2 (CRE-Luc reporter) (ADBR2)
1 | – | Nc1nc(NCCc2ccc(O)cc2)nc2nc(-c3ccco3)nn12 [ZM-241385] | 1.3 | 2 | 1.3 | 1.4 | – | – | – | – | – | –
2 | 2100 | CCOC(=O)N1CCN(c2cc(N3CCC(C)CC3)c(F)cc2[N+](=O)[O-])CC1 [compound 1] | – | – | – | – | show a dose-response curve | inhibited | 2.9 | 400 nM and 800 nM | do not show any activity | did not inhibit
3 | – | CC(=O)N1CCN(c2cc(N3CCCCC3)c(F)cc2[N+](=O)[O-])CC1 [compound 2] | – | – | – | – | show a dose-response curve | inhibited | 1.7 | 400 nM and 300 nM | do not show any activity | did not inhibit
